# Values of other authors in patent US20220192993A1, “DOSAGE FORMS AND METHODS OF PREPARATION AND USE THEREOF” (Willow Bark Brands, Inc., priority 2019, published 2022).
# Tested on: brain alpha wave activity
# Conditions: reported effect, 'testing shows'
compound,measurement,value
CCNC(=O)CC[C@H](N)C(=O)O [L-Theanine],brain alpha wave activity,L-Theanine increases
